This is an account of results in article PMC7578061, “Potent inhibition of tumour cell proliferation and immunoregulatory function by mitochondria-targeted atovaquone” (Scientific Reports, 2020).

For assay [1], the system named is LKR13 mouse lung cancer cells. Description: IncuCyte cell proliferation (cell confluence), LKR13. It counts as cell-based. Particulars: read-out: IC50, inhibition of cell proliferation (cell confluence). An excerpt: (§1) Previous reports provide evidence for enhanced uptake of several mitochondria-targeted cationic agents into cancer cells as compared with non-transformed control cells[11]–[14].
(§2) The following cell lines were obtained from the American Type Culture Collection (Manassas, VA), where they were regularly authenticated: MiaPaCa-2 (ATCC#CRL-1420, human pancreatic cancer), MDA-MB-231 (ATCC#HTB-26, human breast cancer), A549 (ATCC#CCL-185, human lung cancer), LLC (ATCC#CLR-1642, mouse lung cancer). LKR13 mouse lung cancer cells were a gift from Dr. Jonathan M. Kurie (MD Anderson Cancer Center, Houston, TX)[30]. All cell lines were grown at 37 °C in 5% CO2. MiaPaCa-2 and MDA-MB-231 cells were maintained in DMEM medium (Thermo Fisher Scientific, #11965) supplemented with 10% foetal bovine serum. A549, LLC, and LKR13 cells were maintained in RPMI 1640 medium (Thermo Fisher Scientific, #11875), supplemented with 10% foetal bovine serum. All cells were stored in liquid nitrogen and used within 20 passages after thawing.
(§3) The IncuCyte Live-Cell Imaging system (IncuCyte Essen Bioscience Inc., Ann Arbor, MI) was used to monitor cell proliferation[11]–[13]. As shown in previous publications[11],[12], this imaging system is probe-free and noninvasive, and enables continuous monitoring of cell confluence over several days. […]

Assay [2] concerns A549 human lung cancer cells. Description: IncuCyte cell proliferation (cell confluence), A549. Format: cell-based. Particulars: read-out: IC50, inhibition of cell proliferation (cell confluence).
From the text: as §1, §2, §3

Assay [3] deals with MiaPaCa-2 cells. The assay is described as follows: IncuCyte cell proliferation (cell confluence), MiaPaCa-2. Format: cell-based, human. Particulars: for IC50: Homo sapiens, MIA PaCa-2, MiaPaCa-2 cells, confluence as control groups reach 98% confluency, read-out: IC50, inhibition of cell proliferation (cell confluence); for Antiproliferative effect compared with corresponding Mito-ATO analogs: MiaPaCa-2 cells, Figure S3. On the procedure: as §2
The IncuCyte Live-Cell Imaging system (IncuCyte Essen Bioscience Inc., Ann Arbor, MI) was used to monitor cell proliferation[11]–[13]. As shown in previous publications[11],[12], this imaging system is probe-free and noninvasive, and enables continuous monitoring of cell confluence over several days. The increase in the percentage of cell confluence was used as a surrogate marker of cell proliferation. In a 96-well plate, cells were plated at 1,000 cells per well in triplicates and left to adhere overnight.

Assay [4] has as its system CD4+ T cells from SMARTA triple reporter mice. The assay is described as follows: In vitro differentiation of CD4+ T regulatory cells, flow cytometry. Particulars: six days of culture; for Treg differentiation and/or survival: up to 60 µM; for Foxp3+ Treg differentiation and/or survival: varying concentrations; for Teff cell IFNγ production: dose-dependent. Format: cell-based, mouse. The source says: Recent reports indicate that selective targeting and inhibiting of mitochondrial complex III mitigate and reverse immunosuppression by Treg cells, promoting the function of Teff cells[15],[17]. […] After six days, cells were stained to assess viability, phenotype, and function using flow cytometry.
Figure 5 In vitro differentiation of CD4^+ T regulatory cells under varying concentrations of Mito-ATOs and controls. After six days of culture, cells were stained for flow cytometry analysis. (left) Live/dead staining to assess the percentage of live CD4 + T cells within the lymphocyte gate. (middle) Teff cell function is shown as the frequency of IFNγ-YFP positive cells within the live CD4^+ T cells. (right) The percentage of Treg cells is shown as the frequency of FoxP3^+CD25^+ cells within the live CD4^+ T cells. […] I assigned them to Mito10-ATO from the label under the bar charts above. / Panel A contour plots: no measure is printed with the gate percentages. Only the axes CD25 and FoxP3 are printed.
To differentiate CD4^+ T cells into a T regulatory cell phenotype, splenocytes from SMARTA triple-reporter mice were processed and the red blood cell lysed using an ACK (ammonium-chloride-potassium) lysis buffer. The cells were then activated with 1 μg/mL GP61–80 peptide (GenScript, Piscataway, NJ) and 5 ng/mL TGF-β1 (Shenandoah Biotechnology, Inc., Warwick, PA). […] Cells were cultured for six days and split once cells reached confluency; cells were replenished with IL-2 and compound accordingly. After six days in culture, cells were stained to assess the viability and phenotypic analysis via flow cytometry. LIVE/DEAD fixable violet or aqua dead cell stain (Invitrogen, Carlsbad, CA) was used to assess cell viability. The following antibodies were used for flow cytometry staining: PercP anti-mouse CD4 (clone: GK1.5; BioLegend, San Diego, CA), APC/Cy7 anti-mouse CD25 (clone: PC61; BioLegend), and PE anti-mouse FOXP3 (clone: FJK-16S; eBioscience, San Diego, CA). Flow cytometry data were acquired using a BD LSRII (BD Biosciences, CA) flow cytometer and analysed using FlowJo (Treestar, Inc., Ashland, OR).
For orientation: In flow cytometry, cells or beads pass a laser one at a time.

The test system of assay [5] is MDA-MB-231 human breast cancer cells. The assay is described as follows: IncuCyte cell proliferation (cell confluence), MDA-MB-231. Particulars: MDA-MB-231 cells, read-out: IC50, inhibition of cell proliferation (cell confluence). It counts as cell-based.
From the text: as §1, §2, §3

Assay [6] concerns LLC mouse lung cancer cells. Description: IncuCyte cell proliferation (cell confluence), LLC. Format: cell-based. Particulars: Lewis lung carcinoma, read-out: IC50, inhibition of cell proliferation (cell confluence).
From the text: as §1, §2, §3

Assay [7] addresses T1, mitochondrial complex III (Homo sapiens, UniProt P00156+P47985). The assay is described as follows: Seahorse complex III-driven OCR in permeabilized MiaPaCa-2 cells. Format: cell-based. Details: carried out on acutely permeabilized cells in the presence of different mitochondrial substrates; endogenous in cells; host or cells: MiaPaCa-2 (A7). Particulars: for IC50: MiaPaCa-2 cells treated 24 h, duroquinol, read-out: Complex III IC50 (AA-inhibitable OCR); for Inhibition of complex III-induced oxygen consumption: MiaPaCa-2 cells, 24 h. On the procedure: The mitochondrial complex activities were assessed by measuring the oxygen consumption rate (OCR) using the Seahorse technique[6],[11]–[14]. MiaPaCa-2 cells were treated separately with Mito-ATO analogs at different concentrations for 24 h and OCR was measured.
Figure 2 Effects of Mito-ATO analogs on the oxygen consumption induced by mitochondrial complexes I and III. […] MiaPaCa-2 cells were treated with Mito-ATO for 24 h. Relative complex I (1.5 mM malate, 10 mM pyruvate, 10 mM ADP)-driven OCR (left) and relative complex III (0.5 mM duroquinol, 10 mM ADP)-driven OCR (right) were monitored by XF-96 analyser. Either Rot (complex I inhibitor) or antimycin A (AA, complex III inhibitor) was acutely added and OCR assayed immediately. […] Dashed lines represent the fitting curves used for determination of the IC50 values. (n.a., not applicable).
(§4) Mitochondrial bioenergetic function was measured in real time using the Seahorse XF 96 Extracellular Flux Analyzer (Agilent, North Billerica, MA)[11]–[13],[22]. The OCR-based assessment of mitochondrial complex activities was carried out on acutely permeabilized cells in the presence of different mitochondrial substrates, i.e., pyruvate/malate, for complex I and duroquinol for complex III[11],[14],[31],[32]. Rot, malonate, and antimycin A (Sigma-Aldrich, St. Louis, MO) were used as specific inhibitors of mitochondrial complexes I, II, and III, respectively. Briefly, cells that were intact after treatments were immediately permeabilized using the Seahorse XF Plasma Membrane Permeabilizer (Agilent). The mitochondrial complex I-driven OCR was assayed in mannitol and sucrose buffer[31] containing 10 mM pyruvate and 1.5 mM malate (substrates for complex I) and 10 mM malonate (which inhibits complex II activities). The mitochondrial complex III-driven OCR was assayed in mannitol and sucrose buffer containing 0.5 mM duroquinol (substrate for complex III) and 1 µM Rot and 10 mM malonate (which inhibit both complex I and II activities). The mitochondrial complex-dependent oxygen consumption (calculated as Rot- or antimycin A-inhibitable OCR equals basal OCR less OCR after Rot or antimycin A injection) was plotted against concentrations to determine the IC50 values.

Assay [8] deals with T1, mitochondrial complex III. The assay is described as follows: Seahorse complex III-driven OCR in A549 cells. Format: cell-based. The arrangement: carried out on acutely permeabilized cells in the presence of different mitochondrial substrates; endogenous in cells; host or cells: A549 (A9). As for the experimental part: (§5) Dashed lines represent the fitting curves used for determination of the IC50 values.
as §4, with “The mitochondrial complex III-driven OCR was assayed in mannitol and sucrose buffer containing 0.5 mM duroquinol (substrate for complex III) and 1 µM Rot and 10 mM malonate (which inhibit both complex I and II activities).” left out

The target in assay [9] is T2, mitochondrial complex III (Mus musculus, UniProt P00158+Q9CR68).
T2 construct: carried out on acutely permeabilized cells in the presence of different mitochondrial substrates; endogenous in cells; host or cells: LLC (A11); LKR13 (A13)
Description: Seahorse complex III-driven OCR in LLC cells. Format: cell-based. On the procedure:
as §5
as §4, with “The mitochondrial complex III-driven OCR was assayed in mannitol and sucrose buffer containing 0.5 mM duroquinol (substrate for complex III) and 1 µM Rot and 10 mM malonate (which inhibit both complex I and II activities).” left out

Assay [10] concerns the target T2, mitochondrial complex III. The assay is described as follows: Seahorse complex III-driven OCR in LKR13 cells. Format: cell-based. As for the experimental part:
as §5
as §4, with “The mitochondrial complex III-driven OCR was assayed in mannitol and sucrose buffer containing 0.5 mM duroquinol (substrate for complex III) and 1 µM Rot and 10 mM malonate (which inhibit both complex I and II activities).” left out

Consider `O=C1C(O)=C([C@H]2CC[C@H](c3ccc(Cl)cc3)CC2)C(=O)c2ccccc21` [ATO, Atovaquone], for which the IC50 was 10000 nM in assay [1]; 16000 nM in [2]; 18000 nM in assay [3]; 18000 nM in assay [5]; 13000 nM in assay [6]. Moreover, the “Treg differentiation and/or survival” value in assay [4] is on record as “did not inhibit”.

In the case of `O=C1C(OCCCC[P+](c2ccccc2)(c2ccccc2)c2ccccc2)=C([C@H]2CC[C@H](c3ccc(Cl)cc3)CC2)C(=O)c2ccccc21` [Mito4-ATO], in assay [3], the IC50 turned out to be 180 nM. In addition, in assay [4], the “Foxp3+ Treg differentiation and/or survival” value was “inhibited” and the “Teff cell IFNγ production” value is “promoted”. Further, in assay [7], the IC50 stood at 580 nM.

Turning to `O=C1C(OCCCCCCCCCCCC[P+](c2ccccc2)(c2ccccc2)c2ccccc2)=C([C@H]2CC[C@H](c3ccc(Cl)cc3)CC2)C(=O)c2ccccc21` [Mito12-ATO], the “Foxp3+ Treg differentiation and/or survival” value in assay [4] is “did not appreciably inhibit”. Besides, in assay [7], the “Inhibition of complex III-induced oxygen consumption” value was “did not inhibit”.

Regarding `O=C1C(OCCCCCCCCCC[P+](c2ccccc2)(c2ccccc2)c2ccccc2)=C([C@H]2CC[C@H](c3ccc(Cl)cc3)CC2)C(=O)c2ccccc21` [Mito10-ATO], the IC50 in assay [8] stood at 1000 nM; in assay [1] it was 500 nM; in assay [2] it was 140 nM; in [9] it was 500 nM; in assay [3], 220 nM; in assay [10], 2100 nM. For the same molecule, the figures for the IC50 in assay [5], in assay [6] and in assay [7] were 230 nM, 460 nM and 780 nM, respectively. Also, the “Foxp3+ Treg differentiation and/or survival” value in assay [4] is reported as “inhibited”. Further, the “Teff cell IFNγ production” value in assay [4] is “promoted”.

`O=C1C(OCCCCCCCCCCCCCCCC[P+](c2ccccc2)(c2ccccc2)c2ccccc2)=C([C@H]2CC[C@H](c3ccc(Cl)cc3)CC2)C(=O)c2ccccc21` [Mito16-ATO]: the IC50 in assay [3] was determined as 3000 nM. The “Inhibition of complex III-induced oxygen consumption” value in assay [7] is recorded as “did not inhibit”.

As for `CCCCOC1=C([C@H]2CC[C@H](c3ccc(Cl)cc3)CC2)C(=O)c2ccccc2C1=O` [Butyl-ATO], the “Antiproliferative effect compared with corresponding Mito-ATO analogs” value in [3] is given as “much less effective”. Further, the “Treg differentiation and/or survival” value in [4] is reported as “did not inhibit”.

Consider `CCCCCCCCCCOC1=C([C@H]2CC[C@H](c3ccc(Cl)cc3)CC2)C(=O)c2ccccc2C1=O` [Decyl-ATO], for which the “Antiproliferative effect compared with corresponding Mito-ATO analogs” value in assay [3] is “much less effective”. Besides, in [4], the “Treg differentiation and/or survival” value is given as “did not inhibit”.
